Data from BindingDB's records for doi:10.1016/s0960-894x(01)00477-2 (Section De Chimie De L'Universit&#163, 2001).

Experiments:
[1] = Inhibitory activity towards Alpha-mannosidase from jack bean
[2] = Inhibitory activity towards Beta-Glucosidase from Almond
[3] = as above; remark: listed apart in the source
[4] = Inhibitory activity towards Alpha-mannosidase from Jack bean
[5] = as above; remark: listed apart in the source
[6] = Inhibitory activity towards Beta-Glucosidase from Almond; remark: listed apart in the source
[7] = Inhibitory activity towards Alpha-mannosidase from Almond
[8] = Inhibitory activity towards Beta-Glucosidase from Almond; remark: listed apart in the source
[9] = Inhibitory activity towards Alpha-mannosidase from Almond; remark: listed apart in the source
[10] = as above; remark: listed apart in the source

| Structure (SMILES) | IC50 [4] [µM] | Ki [5] [µM] | IC50 [6] [µM] | also measured |
| --- | --- | --- | --- | --- |
| OCC(O)[C@H]1NC[C@H](O)[C@@H]1O (stereo partly drawn) |  |  |  | IC50 [1]: 800 µM; IC50 [2]: 120 µM; Ki [3]: 53 µM |
| OC(O)CC1NCC(O)C1O (stereo not drawn) [2-(2,2-Dihydroxy-ethyl)-pyrrolidine-3,4-diol] | 180 | 80 |  |  |
| NCC1NCC(O)C1O (stereo not drawn) [2-Aminomethyl-pyrrolidine-3,4-diol] | 170 | 53 |  | IC50 [7]: 1000 µM |
| OC1CNC(CNC2CCCC2)C1O (stereo not drawn) [2-Cyclopentylaminomethyl-pyrrolidine-3,4-diol] |  |  | 500 | IC50 [1]: 560 µM |
| CC(NCC1NCC(O)C1O)C(O)(c1ccccc1)c1ccccc1 (stereo not drawn) [2-[(2-Hydroxy-1-methyl-2,2-diphenyl-ethylamino)-methyl]-pyrrolidine-3,4-diol] |  | 170 | 550 | IC50 [1]: 440 µM |
| OC1CNC(CNCC2CCN(Cc3ccccc3)CC2)C1O (stereo not drawn) [2-{[(1-Benzyl-piperidin-4-ylmethyl)-amino]-methyl}-pyrrolidine-3,4-diol] | 700 |  | 430 |  |
| CC(=O)N(Cc1ccccc1)CC1NCC(O)C1O (stereo not drawn) [N-Benzyl-N-(3,4-dihydroxy-pyrrolidin-2-ylmethyl)-acetamide] |  |  | 430 | Ki [3]: 220 µM |

Second part, led by results:

| IC50 [4] [µM] | Ki [5] [µM] | IC50 [6] [µM] | Structure (SMILES) | also measured |
| --- | --- | --- | --- | --- |
|  |  | 370 | OC1CNC(CNCc2ccccc2)C1O (stereo not drawn) [2-(Benzylamino-methyl)-pyrrolidine-3,4-diol] |  |
| 440 | 170 |  | C[C@@H](NCC1NCC(O)C1O)c1ccccc1 (stereo partly drawn) [2-[((R)-1-Phenyl-ethylamino)-methyl]-pyrrolidine-3,4-diol] |  |
|  |  | 140 | OC1CNC(CNCc2ccco2)C1O (stereo not drawn) [2-{[(Furan-2-ylmethyl)-amino]-methyl}-pyrrolidine-3,4-diol] | Ki [8]: 12 µM |
| 700 |  | 420 | OC1CNC(CNCn2ccnc2)C1O (stereo not drawn) [2-{[(Imidazol-1-ylmethyl)-amino]-methyl}-pyrrolidine-3,4-diol] | IC50 [7]: 570 µM |
|  | 26 |  | OC1CNC(CNCc2cccs2)C1O (stereo not drawn) [2-{[(Thiophen-2-ylmethyl)-amino]-methyl}-pyrrolidine-3,4-diol] | IC50 [9]: 350 µM; Ki [10]: 98 µM |
